According to patent US7566712B2, “Biaryl piperazinyl-pyridine analogues” (Neurogen Corporation, priority 2003, dated 2009):

Biological target: T1, human capsaicin receptor (Homo sapiens, UniProt Q8NER1)
T1 construct: pBK-CMV expression construct encoding the full length human capsaicin receptor; expressed in transfected cells
Test: Calcium mobilization assay, determination of antagonist activity (Example 6)
Type: cell-based
Settings: determined as described in Example 6 (calcium mobilization, antagonist activity); Table II
How it was run: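 Antagonism measured as inhibition of capsaicin-evoked (final concentration = EC50, from an 8-point 1 nM–3 μM curve) Fluo-3 calcium signal in stable hVR1-HEK293 cells. Test compounds at 1–5 μM final, 0.5–6 h dark preincubation at room temperature. IC50 = concentration giving 50% reduction versus agonist-only response.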

T1 sequence (Q8NER1 whole entry): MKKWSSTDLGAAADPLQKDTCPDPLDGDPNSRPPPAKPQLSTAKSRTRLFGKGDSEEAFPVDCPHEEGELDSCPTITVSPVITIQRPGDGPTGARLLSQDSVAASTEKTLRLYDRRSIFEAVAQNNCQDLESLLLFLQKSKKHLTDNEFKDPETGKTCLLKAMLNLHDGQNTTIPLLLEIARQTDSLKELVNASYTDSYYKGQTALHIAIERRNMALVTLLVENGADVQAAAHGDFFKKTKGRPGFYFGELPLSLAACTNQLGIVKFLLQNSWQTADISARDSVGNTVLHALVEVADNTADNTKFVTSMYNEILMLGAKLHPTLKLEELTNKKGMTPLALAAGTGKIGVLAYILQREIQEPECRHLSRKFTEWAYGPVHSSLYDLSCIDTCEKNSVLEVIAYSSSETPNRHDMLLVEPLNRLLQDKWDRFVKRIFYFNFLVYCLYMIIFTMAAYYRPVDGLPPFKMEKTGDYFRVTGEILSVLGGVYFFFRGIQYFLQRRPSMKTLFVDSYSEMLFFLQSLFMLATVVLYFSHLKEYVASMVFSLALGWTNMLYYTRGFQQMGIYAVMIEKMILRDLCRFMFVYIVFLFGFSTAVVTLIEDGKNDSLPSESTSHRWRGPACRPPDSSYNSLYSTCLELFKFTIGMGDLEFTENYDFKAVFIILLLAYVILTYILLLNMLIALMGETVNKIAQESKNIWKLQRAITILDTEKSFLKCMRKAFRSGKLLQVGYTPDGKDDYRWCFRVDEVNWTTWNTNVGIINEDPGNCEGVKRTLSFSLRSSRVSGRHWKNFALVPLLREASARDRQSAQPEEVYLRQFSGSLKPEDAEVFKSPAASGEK

| IC50 | Structure (SMILES) |
| --- | --- |
| ≤ 1000 nM | N#Cc1cccnc1N1CCN(c2cc(-c3ccc(F)c(Cl)c3)nc(N3CCOCC3)n2)CC1 [Example 583, 2-{4-[6-(3-chloro-4-fluorophenyl)-2-morpholin-4-ylpyrimidin-4-yl]piperazin-1-yl}nicotinonitrile] |
| ≤ 1000 nM | Nc1nc(-c2ccc(F)c(Cl)c2)cc(N2CCN(c3ncccc3C(F)(F)F)CC2)n1 [Example 584, 4-(3-chloro-4-fluorophenyl)-6-{4-[3-(trifluoromethyl)pyridin-2-yl]piperazin-1-yl}pyrimidin-2-amine] |
| ≤ 1000 nM | Cc1cccnc1N1CCN(c2cc(-c3ccc(F)c(Cl)c3)nc(N3CCOCC3)n2)CC1 [Example 585, 4-{4-(3-chloro-4-fluorophenyl)-6-[4-(3-methylpyridin-2-yl)piperazin-1-yl]pyrimidin-2-yl}morpholine] |
| ≤ 1000 nM | COc1cccnc1N1CCN(c2cc(-c3ccc(F)c(Cl)c3)nc(N3CCOCC3)n2)CC1 [Example 586, 4-{4-(3-chloro-4-fluorophenyl)-6-[4-(3-methoxypyridin-2-yl)piperazan-1-yl]pyrimidin-2-yl}morpholine] |
| ≤ 1000 nM | Nc1cccnc1N1CCN(c2cc(-c3ccc(F)c(Cl)c3)nc(N3CCOCC3)n2)CC1 [Example 587, 2-{4-[6-(3-chloro-4-fluorophenyl)-2-morpholin-4-ylpyrimidin-4-yl]piperazin-1-yl}pyridin-3-amine] |
| ≤ 1000 nM | CS(=O)(=O)Nc1cccnc1N1CCN(c2cc(-c3ccc(F)c(Cl)c3)nc(N3CCOCC3)n2)CC1 [Example 588, N-(2-{4-[6-(3-chloro-4-fluorophenyl)-2-morpholin-4-ylpyrimidin-4-yl]piperazin-1-yl}pyridin-3-yl)methanesulfonamide] |
| ≤ 1000 nM | Nc1cccc(-c2cc(N3CCN(c4ncccc4C(F)(F)F)CC3)nc(N3CCOCC3)n2)c1 [Example 589, 3-(2-morpholin-4-yl-6-{4-[3-(trifluoromethyl)pyridin-2-yl]piperazin-1-yl}pyrimidin-4-yl)phenylamine] |
| ≤ 1000 nM | Cc1cc(-c2cc(N3CCN(c4ncccc4C(F)(F)F)CC3)nc(N3CCOCC3)n2)cc(C)n1 [Example 590, 4-(4-(2,6-dimethylpyridin-4-yl)-6-{4-[3-(trifluoromethyl)pyridin-2-yl]piperazin-1-yl}pyrimidin-2-yl)morpholine] |
| ≤ 1000 nM | CCN(CC)c1nc(-c2cc(C)nc(C)c2)cc(N2CCN(c3ncccc3C(F)(F)F)CC2)n1 [Example 591, 4-(2,6-dimethylpyridin-4-yl)-N,N-diethyl-6-{4-[3-(trifluoromethyl)pyridin-2-yl]piperazin-1-yl}pyrimidin-2-amine] |
| ≤ 1000 nM | CC(C)c1cc(-c2cc(N3CCN(c4ncccc4C(F)(F)F)CC3)nc(N3CCOCC3)n2)ccn1 [Example 592, 4-(4-(2-isopropylpyridin-4-yl)-6-{4-[3-(trifluoromethyl)pyridin-2-yl]piperazin-1-yl}pyrimidin-2-yl)morpholine] |
| ≤ 1000 nM | FC(F)(F)c1cccnc1N1CCN(c2cc(-c3cncc(Cl)c3)nc(N3CCOCC3)n2)CC1 [Example 593, 4-(4-(5-chloropyridin-3-yl)-6-{4-[3-(trifluoromethyl)pyridin-2-yl]piperazin-1-yl}pyrimidin-2-yl)morphotine] |
| ≤ 1000 nM | CCN(CC)c1nc(-c2ccc(F)c(C)c2)cc(N2CCN(c3ncccc3C(F)(F)F)CC2)n1 [Example 594, N,N-diethyl-4-(4-fluoro-3-methylphenyl)-6-{4-[3-(trifluoromethyl)pyridin-2-yl]piperazin-1-yl}pyrimidin-2-amine] |
| ≤ 1000 nM | CCN(CC)c1nc(-c2cncc(Cl)c2)cc(N2CCN(c3ncccc3C(F)(F)F)CC2)n1 [Example 595, 4-(5-chloropyridin-3-yl)-N,N-diethyl-6-{4-[3-(trifluoromethyl)pyridin-2-yl]piperazin-1-yl}pyrimidin-2-amine] |
| ≤ 1000 nM | CCN(CC)c1nc(-c2ccc(F)c(F)c2)cc(N2CCN(c3ncccc3C(F)(F)F)CC2)n1 [Example 596, 4-(3,4-difluorophenyl)-N,N-diethyl-6-{4-[3-(trifluoromethyl)pyridin-2-yl]piperazin-1-yl}pyrimidin-2-amine] |
| ≤ 1000 nM | CCN(CC)c1nc(-c2cccc(Cl)c2)cc(N2CCN(c3ncccc3C(F)(F)F)CC2)n1 [Example 597, 4-(3-chlorophenyl)-N,N-diethyl-6-{4-[3-(trifluoromethyl)pyridin-2-yl]piperazin-1-yl}pyrimidin-2-amine] |
| ≤ 1000 nM | CC(C)N1CCN(c2nc(-c3ccc(F)c(Cl)c3)cc(N3CCN(c4ncccc4C(F)(F)F)CC3)n2)CC1 [Example 598, 4-(3-chloro-4-fluorophenyl)-2-(4-isopropylpiperazin-1-yl)-6-{4-[3-(trifluoromethyl)pyridin-2-yl]piperazin-1-yl}pyrimidine] |

| IC50 | Structure (SMILES) |
| --- | --- |
| ≤ 1000 nM | CC(C)N(C)c1nc(-c2ccc(F)c(Cl)c2)cc(N2CCN(c3ncccc3C(F)(F)F)CC2)n1 [Example 600, 4-(3-chloro-4-fluorophenyl)-N-isopropyl-N-methyl-6-{4-[3-(trifluoromethyl)pyridin-2-yl]piperazin-1-yl}pyrimidin-2-amine] |
| ≤ 1000 nM | CCN(c1nc(-c2ccc(F)c(Cl)c2)cc(N2CCN(c3ncccc3C(F)(F)F)CC2)n1)C(C)C [Example 601, 4-(3-chloro-4-fluorophenyl)-N-ethyl-N-isopropyl-6-{4-[3-(trifluoromethyl)pyridin-2-yl]piperazin-1-yl}pyrimidin-2-amine] |
| ≤ 1000 nM | Fc1ccc(-c2cc(N3CCN(c4ncccc4C(F)(F)F)CC3)nc(N3CCCCC3)n2)cc1Cl [Example 602, 4-(3-chloro-4-fluorophenyl)-2-piperidin-1-yl-6-{4-[3-(trifluoromethyl)pyridin-2-yl]piperazin-1-yl}pyrimidine] |
| ≤ 1000 nM | Fc1ccc(-c2cc(N3CCN(c4ncccc4C(F)(F)F)CC3)nc(N3CCCC3)n2)cc1Cl [Example 603, 4-(3-chloro-4-fluorophenyl)-2-pyrrolidin-1-yl-6-{4-[3-(trifluoromethyl)pyridin-2-yl]piperazin-1-yl}pyrimidine] |
| ≤ 1000 nM | CCN(CC)c1nc(-c2cccc(C)c2)cc(N2CCN(c3ncccc3C(F)(F)F)CC2)n1 [Example 604, N,N-diethyl-4-(3-methylphenyl)-6-{4-[3-(trifluoromethyl)pyridin-2-yl]piperazin-1-yl}pyrimidin-2-amine] |
| ≤ 1000 nM | CC(C)c1nc(-c2ccc(F)c(Cl)c2)cc(N2CCN(c3ncccc3C(F)(F)F)CC2)n1 [Example 605, 4-(3-chloro-4-fluorophenyl)-2-isopropyl-6-{4-[3-(trifluoromethyl)pyridin-2-yl]piperazin-1-yl}pyrimidine] |
| ≤ 1000 nM | Cc1ccc(-c2cc(N3CCN(c4ncccc4C(F)(F)F)CC3)nc(N3CCOCC3)n2)cn1 [Example 606, 4-(4-(6-methylpyridin-3-yl)-6-{4-[3-(trifluoromethyl)pyridin-2-yl]piperazin-1-yl}pyrimidin-2-yl)morpholine] |
| ≤ 1000 nM | CCN(CC)c1nc(-c2ccc(C)nc2)cc(N2CCN(c3ncccc3C(F)(F)F)CC2)n1 [Example 607, N,N-diethyl-4-(6-methylpyridin-3-yl)-6-{4-[3-(trifluoromethyl)pyridin-2-yl]piperazin-1-yl}pyrimidin-2-amine] |
| ≤ 1000 nM | FC(F)(F)c1cccnc1N1CCN(c2cc(-c3ccc(N4CCCC4)c(Cl)c3)nc(N3CCCC3)n2)CC1 [Example 608, 4-(3-chloro-4-pyrrolidin-1-ylphenyl)-2-pyrrolidin-1-yl-6-{4-[3-(trifluoromethyl)pyridin-2-yl]piperazin-1-yl}pyrimidine] |
| ≤ 1000 nM | CC1CCCN1c1nc(-c2ccc(F)c(Cl)c2)cc(N2CCN(c3ncccc3C(F)(F)F)CC2)n1 (centres unmarked) [Example 609, 4-(3-chloro-4-fluorophenyl)-2-(2-methylpyrrolidin-1-yl)-6-{4-[3-(trifluoromethyl)pyridin-2-yl]piperazin-1-yl}pyrimidine] |
| ≤ 1000 nM | OC[C@H]1CCCN1c1nc(-c2ccc(F)c(Cl)c2)cc(N2CCN(c3ncccc3C(F)(F)F)CC2)n1 [Example 610, [(2R)-1-(4-(3-chloro-4-fluorophenyl)-6-{4-[3-(trifluoromethyl)pyridin-2-yl]piperazin-1-yl}pyrimidin-2-yl)pyrrolidin-2-yl]methanol] |
| ≤ 1000 nM | CC1CCCCN1c1nc(-c2ccc(F)c(Cl)c2)cc(N2CCN(c3ncccc3C(F)(F)F)CC2)n1 (centres unmarked) [Example 611, 4-(3-chloro-4-fluorophenyl)-2-(2-methylpiperidin-1-yl)-6-{4-[3-(trifluoromethyl)pyridin-2-yl]piperazin-1-yl}pyrimidine] |
| ≤ 1000 nM | CC1(C)CCCN(c2nc(-c3ccc(F)c(Cl)c3)cc(N3CCN(c4ncccc4C(F)(F)F)CC3)n2)C1 [Example 612, 4-(3-chloro-4-fluorophenyl)-2-(3,3-dimethylpiperidin-1-yl)-6-{4-[3-(trifluoromethyl)pyridin-2-yl]piperazin-1-yl}pyrimidine] |
| ≤ 1000 nM | CCC1CCCCN1c1nc(-c2ccc(F)c(Cl)c2)cc(N2CCN(c3ncccc3C(F)(F)F)CC2)n1 (centres unmarked) [Example 613, 4-(3-chloro-4-fluorophenyl)-2-(2-ethylpiperidin-1-yl)-6-{4-[3-(trifluoromethyl)pyridin-2-yl]piperazin-1-yl}pyrimidine] |
| ≤ 1000 nM | CC1CN(c2nc(-c3ccc(F)c(Cl)c3)cc(N3CCN(c4ncccc4C(F)(F)F)CC3)n2)CCN1 (centres unmarked) [Example 614, 4-(3-chloro-4-fluorophenyl)-2-(3-methylpiperazin-1-yl)-6-{4-[3-(trifluoromethyl)pyridin-2-yl]piperazin-1-yl}pyrimidine] |
| ≤ 1000 nM | CC(C)CN(C)c1nc(-c2ccc(F)c(Cl)c2)cc(N2CCN(c3ncccc3C(F)(F)F)CC2)n1 [Example 615, 4-(3-chloro-4-fluorophenyl)-N-isobuty-methyl-6-{4-[3-(trifluoromethyl)pyridin-2-yl]piperazin-1-yl}pyrimidin-2-amine] |
